Reference: patent US12528816B2, “Substituted imidazo [1,2-b] pyridazines and [1, 2, 4] triazolo [ 4,3-b] pyridazines as camkii inhibitors” (Cardurion Pharmaceuticals, INC., priority 2020, dated 2026)

Each compound was assayed against T1, human CaMKIIδ (Homo sapiens, UniProt Q13557) (assay: Evaluation of in vitro CaMKII inhibitory activity (binding assay, TR-FRET)). Details: human CaMKIIδ, TR-FRET binding assay; class symbols A/B/C; read-out: Act (CaMKII inhibitory activity, binding assay).
T1 construct: Full-length, glutathione-S-transferase(GST)-tagged, human CaMKIIδ was purchased from Carna Biosciences; purchased Carna Biosciences (CaMKIIδ); Wako Pure Chemical Industries (calmodulin) 02-111
Summary of the method: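 Inhibitors, in eight concentrations of 4-fold dilution, were incubated 1 h at room temperature with a protein–fluorescent probe premix preformed 30 min on ice, containing calmodulin and terbium anti-GST antibody. Displacement read by TR-FRET in duplicate; IC50 by logistic fitting.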

Compound | IC50 [nM]
C[C@@H](Cn1cnnn1)Oc1cncc(-c2ccc3ncc(-c4nccc(C(F)F)c4C#N)n3n2)n1 [compound 471] | > 100
CC[C@@H](Cn1cnnn1)Oc1cc(-c2ccc3ncc(-c4nccc(OC)c4C#N)n3n2)ccc1F [compound 476] | < 10
COc1ccnc(-c2cnc3ccc(-c4ccc(F)c(N(C)[C@@H](C)Cn5cnnn5)c4)nn23)c1C#N [compound 479] | > 100
COc1cc(F)cc(-c2cnc3ccc(-c4cccc(N[C@@H](C)Cn5cnnn5)n4)nn23)c1C#N [compound 480] | < 10
COc1cc(F)cc(-c2cnc3ccc(-c4cc(N[C@@H](C)Cn5cnnn5)ccn4)nn23)c1C#N [compound 481] | < 10
COc1cc(F)cc(-c2cnc3ccc(-c4cncc(N[C@@H](C)Cn5cnnn5)c4)nn23)c1C#N [compound 482] | < 10
C[C@@H](Cn1cnnn1)Nc1ccnc(-c2ccc3ncc(-c4cc(F)ccc4C#N)n3n2)c1 [compound 483] | < 10
C[C@@H](Cn1cnnn1)Nc1cncc(-c2ccc3ncc(-c4cc(F)ccc4C#N)n3n2)n1 [compound 484] | < 10
C[C@@H](Cn1cnnn1)Nc1cc(-c2ccc3ncc(-c4ncccc4C#N)n3n2)ccc1F [compound 485] | < 10
COc1ccnc(-c2cnc3ccc(-c4cc(O[C@@H](C)Cn5cnnn5)ccn4)nn23)c1C#N [compound 486] | 10 to 100

Same assay, conditions: in vitro CaMKII inhibitory activity (binding assay), human CaMKIIδ; read-out: Act

Compound | IC50 [nM]
COc1ccnc(-c2cnn3ccc(-c4cccc(O[C@@H](C)Cn5cnnn5)n4)nc23)c1C#N [compound 430] | > 100
C[C@@H](Cn1cnnn1)Oc1cc(-c2ccc3ncc(-c4[nH]ccc(=O)c4C#N)n3n2)ccc1F [compound 431, 2-[6-(4-fluoro-3-{[(2S)-1-(1H-tetrazol-1-yl)propan-2-yl]oxy}phenyl)imidazo[1,2-b]pyridazin-3-yl]-4-oxo-1,4-dihydropyridine-3-carbonitrile] | > 100
COc1cccc(-c2cnc3ccc(-c4ccc(F)c(O[C@@H](C)Cn5cnnn5)c4)nn23)n1 [compound 432] | < 10
C[C@@H](Cn1cnnn1)Oc1cccc(-c2ccc3ncc(-c4cc(F)c(F)cc4C#N)n3n2)n1 [compound 433] | < 10
C[C@@H](Cn1cnnn1)Oc1cccc(-c2ccc3ncc(-c4cc(F)cnc4C#N)n3n2)c1 [compound 434] | < 10
C[C@@H](Cn1cnnn1)Oc1cc(-c2ccc3ncc(-c4c(C#N)c(=O)ccn4CF)n3n2)ccc1F [compound 436] | 10 to 100
COc1ccnc(-c2cnn3ccc(-c4ccc(F)c(O[C@@H](C)Cn5cnnn5)c4)nc23)c1C#N [compound 437] | < 10
COc1cc(F)cc(-c2cnc3ccc(-c4cc(O[C@@H](C)Cn5cnnn5)ccn4)nn23)c1C#N [compound 438] | < 10
COc1cc(F)cc(-n2cnc3ccc(-c4ccc(F)c(O[C@@H](C)Cn5cnnn5)n4)nc32)c1C#N [compound 439] | < 10
COc1cc(OC)c(C#N)c(-n2cnc3ccc(-c4cccc(O[C@@H](C)Cn5cnnn5)n4)nc32)c1 [compound 440] | 10 to 100
C[C@@H](Cn1cnnn1)Oc1cncc(-c2ccc3ncc(-c4cc(Cl)ccc4C#N)n3n2)n1 [compound 441] | < 10
C[C@@H](Cn1cnnn1)Oc1cccc(-c2ccc3ncn(-c4cc(Cl)ccc4C#N)c3n2)n1 [compound 442] | < 10
COc1cc(F)cc(-c2cnc3ccc(-c4cncc(O[C@@H](C)Cn5cncn5)n4)nn23)c1C#N [compound 443] | < 10
COc1ccnc(-c2cnc3ccc(-c4ccc(F)c(O[C@@H](C)Cn5ncnn5)c4)nn23)c1C#N [compound 444] | < 10
C[C@@H](Cn1cnnn1)Oc1cncc(-c2ccc3ncn(-c4cc(Cl)ccc4C#N)c3n2)n1 [compound 445] | 10 to 100
C[C@@H](Cn1cnnn1)Oc1cncc(-c2ccc3ncn(-c4cccc(Cl)c4C#N)c3n2)n1 [compound 446] | > 100
C[C@@H](Cn1cnnn1)Oc1nc(-c2ccc3ncc(-c4cc(F)ccc4C#N)n3n2)ccc1F [compound 449] | < 10
C[C@@H](Cn1cnnn1)Oc1cccc(-c2ccc3ncc(-c4ncc(F)cc4C#N)n3n2)c1 [compound 450] | < 10

Compound | IC50 [nM]
C[C@@H](Cn1cnnn1)Oc1cccc(-c2ccc3ncc(-c4nc(F)c(F)cc4C#N)n3n2)c1 [compound 451] | < 10
C[C@@H](Cn1cnnn1)Oc1cccc(-c2ccc3ncn(-c4cccc(Cl)c4C#N)c3n2)n1 [compound 453] | 10 to 100
COc1cc(Cl)cc(-n2cnc3ccc(-c4cccc(O[C@@H](C)Cn5cnnn5)n4)nc32)c1C#N [compound 454] | < 10
COc1cc(Cl)cc(-c2cnc3ccc(-c4cncc(O[C@@H](C)Cn5cnnn5)n4)nn23)c1C#N [compound 455] | < 10
COc1cc(OC)c(C#N)c(-c2cnc3ccc(-c4cccc(O[C@@H](C)Cn5cnnn5)n4)nn23)c1 [compound 456] | < 10
C[C@@H](Cn1cnnn1)Oc1cccc(-c2ccc3ncc(-c4nccc(C(F)F)c4C#N)n3n2)n1 [compound 457] | 10 to 100
C[C@@H](Cn1cnnn1)Oc1cccc(-c2ccc3ncc(-c4ncccc4C#N)n3n2)n1 [compound 458] | > 100
COc1ncnc(-c2cnc3ccc(-c4cccc(O[C@@H](C)Cn5cnnn5)n4)nn23)c1C#N [compound 459] | > 100
C[C@@H](Cn1cnnn1)Oc1cccc(-c2ccc3ncc(-c4ccc(F)c(F)c4C#N)n3n2)n1 [compound 460] | 10 to 100
C[C@@H](Cn1cnnn1)Oc1cccc(-c2ccc3ncc(-c4c(F)cccc4C#N)n3n2)n1 [compound 461] | 10 to 100
COCc1cc(F)cc(-c2cnc3ccc(-c4cccc(O[C@@H](C)Cn5cnnn5)n4)nn23)c1C#N [compound 462] | < 10
COc1cc(-c2cnc3ccc(-c4cccc(O[C@@H](C)Cn5cnnn5)n4)nn23)c(C#N)cn1 [compound 463] | < 10
C[C@@H](Cn1cnnn1)Oc1cccc(-c2ccc3ncc(-c4cc(=O)[nH]cc4C#N)n3n2)n1 [compound 464] | < 10
C[C@@H](Cn1cnnn1)Oc1cccc(-c2ccc3ncc(-c4cc(=O)n(C)cc4C#N)n3n2)n1 [compound 465] | < 10
C[C@@H](Cn1cnnn1)Oc1cccc(-c2ccc3ncc(-c4ccc(C#N)c(F)n4)n3n2)c1 [compound 468] | < 10
COCCOc1ccnc(-c2cnc3ccc(-c4cccc(O[C@@H](C)Cn5cnnn5)c4)nn23)c1C#N [compound 469] | < 10
COc1cncc(-c2cnc3ccc(-c4ccc(F)c(O[C@@H](C)Cn5cnnn5)c4)nn23)c1C#N [compound 470] | < 10
